Test results taken from patent US4471116A, “Substituted (10H-phenothiazin-10-L)-propyl-1-piperazines” (Hoffmann-La Roche Inc., priority 1982, dated 1984).
Read-outs that look alike come from different tables or passages of the source.

How the values were obtained:
avoidance behavior = experiment: Discrete Avoidance - Rats (avoidance block / escape block); assay type: in vivo, rat; conditions: for Discrete Avoidance, % Block: Rats, 40 mg/kg, oral; for duration of neuroleptic effect (in words): discrete avoidance procedure
Source text: For example, by one procedure, trained rats are placed in experimental chambers equipped with a response lever, a steel grid floor for delivery of electric shock and a loudspeaker for presentation of auditory stimuli. […] The rats can terminate a trial at any point by depression of the response lever. A response during the initial fifteen-second warning tone ends the trial before shock delivery and is considered an avoidance response, while a response occurring during shock delivery is an escape response. Trials are presented every two minutes during a one-hour test session (30 trials per session). […] Compounds are administered to a minimum of three to four rats at each dose level over a range of doses. Rats receive vehicle alone, during control sessions prior to drug administration. Each rat is tested daily or weekly, after a single drug administration, until avoidance behavior returns to pre-drug baseline levels. The session is divided into three consecutive twenty minute (ten trial) segments. Response counts are summed over all subjects at a given dose within each segment. […] This number is expressed as a percentage of the total trials within the segment. […] The lowest dose which produced a 20% block of escape responding (EBD 20) is read from a graphic dose-effect plot. In obtaining these values, percent effect is plotted against the log dose.

Continuous Avoidance [1] = experiment: Continuous Avoidance (Squirrel Monkeys); assay type: in vivo, squirrel monkey; conditions: for minimal effective dose: Primates, Squirrel Monkey, PO, read-out: Continuous Avoidance MED Shocks; for Continuous Avoidance, % Decrease of Responding: Squirrel Monkeys, 5 mg/kg, oral
[2] = tested on: Apomorphine Induced Emesis; experiment: Apomorphine Induced Emesis antagonism (Dogs); assay type: in vivo, dog; conditions: for ED50: Canis lupus familiaris, Dog, SC, read-out: Anti-Apomorphine Emesis ED50; for Apomorphine Induced Emesis % Antagonism: Dogs, 5 mg/kg, subcutaneous
[3] = tested on: Amphetamine Induced Rotation; experiment: Amphetamine Induced Rotation antagonism (S. Nigra Lesioned Rats) / Rotation Antagonism; assay type: in vivo, rat; conditions: for ED50: Rat, PO; for Amphetamine Induced Rotation % Antagonism: S. Nigra Lesioned Rats, 40 mg/kg, oral
[4] = tested on: Confinement Motor Activity; experiment: Confinement Motor Activity; assay type: in vivo; conditions: Rat, PO, read-out: Confinement Motor Activity DD50
[5] = tested on: Dopamine Turnover-Brain Caudate; experiment: Dopamine Turnover-Brain, Caudate; assay type: in vivo; conditions: Rat
[6] = tested on: Dopamine Turnover-Brain Limbic and Remainder; experiment: Dopamine Turnover-Brain, Limbic and Remainder; assay type: in vivo; conditions: Rat
Prolactin Secretion = Prolactin Secretion (in-vitro); assay type: cell-based; conditions: Rat, read-out: Prolactin Secretion ID50
Pole-Climb Avoidance = experiment: Pole-Climb Avoidance, % Block; assay type: in vivo, rat; conditions: Rats, 40 mg/kg, oral
Continuous Avoidance [7] = experiment: Continuous Avoidance, % Decrease of Responding (Rats); assay type: in vivo, rat; conditions: 40 mg/kg, oral
Serum Prolactin = Serum Prolactin Levels (Rats); assay type: in vivo, rat; conditions: 15 mg/kg, oral
[8] = biological target: T1, 3H--Spiroperidol Binding-Caudate (Rattus norvegicus, UniProt P61169); experiment: biochemical
T1 construct: from tissue; host or cells: caudate (brain)

[9] = biological target: T2, Dopamine Adenylate Cyclase (Rattus norvegicus, UniProt P18901); experiment: biochemical; conditions: in-vitro, read-out: Dopamine Adenylate Cyclase Inhibition-Limbic IC50
T2 construct: from tissue; host or cells: limbic brain tissue

[10] = Acute toxicity (LD50) in mice after a single dose; conditions: mouse, in vivo; for LD50 at 168 h: 7 days
revertant colonies = experiment: Ames procedure (mutagenicity)

T2 sequence (P18901 whole entry): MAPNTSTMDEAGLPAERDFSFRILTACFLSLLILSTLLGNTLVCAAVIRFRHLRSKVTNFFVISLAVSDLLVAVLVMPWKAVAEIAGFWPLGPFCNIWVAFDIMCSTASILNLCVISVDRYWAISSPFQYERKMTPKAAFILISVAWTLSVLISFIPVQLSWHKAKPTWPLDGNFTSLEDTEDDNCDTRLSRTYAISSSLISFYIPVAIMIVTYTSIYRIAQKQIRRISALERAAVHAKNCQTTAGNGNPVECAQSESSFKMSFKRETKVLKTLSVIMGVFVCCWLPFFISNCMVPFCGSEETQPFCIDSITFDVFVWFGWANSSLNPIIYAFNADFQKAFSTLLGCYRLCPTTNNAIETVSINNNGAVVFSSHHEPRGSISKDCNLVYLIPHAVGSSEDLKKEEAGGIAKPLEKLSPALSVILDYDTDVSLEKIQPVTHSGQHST
T1 sequence (P61169 whole entry): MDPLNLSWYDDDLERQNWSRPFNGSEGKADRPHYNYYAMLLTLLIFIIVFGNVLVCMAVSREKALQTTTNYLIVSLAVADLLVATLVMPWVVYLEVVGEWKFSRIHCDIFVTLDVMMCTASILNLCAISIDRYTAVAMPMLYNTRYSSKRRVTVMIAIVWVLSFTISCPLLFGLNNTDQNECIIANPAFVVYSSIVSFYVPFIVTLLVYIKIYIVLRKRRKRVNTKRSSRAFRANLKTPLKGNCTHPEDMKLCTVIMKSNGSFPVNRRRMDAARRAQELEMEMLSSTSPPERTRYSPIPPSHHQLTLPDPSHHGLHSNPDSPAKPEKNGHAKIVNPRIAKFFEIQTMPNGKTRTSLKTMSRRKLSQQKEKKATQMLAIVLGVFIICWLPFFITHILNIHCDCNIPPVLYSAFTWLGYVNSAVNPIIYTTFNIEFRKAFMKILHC

CN(C)CCCN1c2ccccc2Sc2ccc(Cl)cc21 [Chlorpromazine, chlorpromazine, reference compound]
ED50 (avoidance behavior; Rattus norvegicus, po, 1 h, read-out: Discrete Avoidance ABD50): 5 mg/kg
minimal effective dose (Continuous Avoidance [1]; 1 Hour Post-Drug): 2 mg/kg
ED50 ([2]; 1 Hour Post-Drug): 1.4 mg/kg
ED50 ([3]; 1 Hour Post-Drug): 20.5 mg/kg
ED50 ([4]; 1 Hour Post-Drug): 4.6 mg/kg
Dopamine Turnover-Brain, Caudate ([5]; 10 mg/kg IP, 1 Hour Post-Drug): Signif. .uparw.
Dopamine Turnover-Brain, Limbic and Remainder ([6]; 10 mg/kg IP, 1 Hour Post-Drug): Signif. .uparw.
IC50 (Prolactin Secretion): 130 nM

CC(C)NC[C@H](O)COc1ccc(OCCN2CCN(CCCN3c4ccccc4Sc4ccc(Cl)cc43)CC2)cc1.Cl.Cl.Cl [Compound A, (S)-1-(1-methylethylamino)-3-[4-[2-[4-[3-(2-chloro-10H-phenothiazin-10-yl)propyl]piperazine-1-yl]ethoxy]phenoxy]-2-propanol trihydrochloride]
Duration of Sig. Activity (avoidance behavior; 40 mg/kg po): 8 weeks
Time of Peak Effect (avoidance behavior; 40 mg/kg po): 2 to 10 days
ED50 (avoidance behavior; 168 h, Rat, PO, 7 Days Post-Drug, read-out: Discrete Avoidance ABD50): 19 mg/kg
EBD20/ABD50 Ratio (avoidance behavior; Rat, PO, 7 Days Post-Drug): > 2.1
Discrete Avoidance, % Block (avoidance behavior; single administration, 1-4 hours): 40%
Discrete Avoidance, % Block (avoidance behavior; 1 week): 84%
Discrete Avoidance, % Block (avoidance behavior; 2-4 hours): 78%
Discrete Avoidance, % Block (avoidance behavior; 2 weeks): 80%
Discrete Avoidance, % Block (avoidance behavior; 3 weeks): 84%
Discrete Avoidance, % Block (avoidance behavior; 4 weeks): 82%
Discrete Avoidance, % Block (avoidance behavior; 5 weeks): 56%
Discrete Avoidance, % Block (avoidance behavior; 6 weeks): 50%
Discrete Avoidance, % Block (avoidance behavior; 7 weeks): 31%
Discrete Avoidance, % Block (avoidance behavior; 8 weeks): 30%
inhibition in vivo at 40 mg/kg (avoidance behavior; Rattus norvegicus, 1 h, 40 mg/kg po, 60 min. post-drug, read-out: Percentage Block of Avoidance, 60 min. post-drug): 40%
ED50 (avoidance behavior; Rattus norvegicus, po, 7-10 days after administration, read-out: ABD50): 13.5 mg/kg
inhibition in vivo at 40 mg/kg (avoidance behavior; Rattus norvegicus, 40 mg/kg po, 24 hrs. post-drug, read-out: Percentage Block of Avoidance, 24 hrs. post-drug): 77%
inhibition in vivo at 40 mg/kg (avoidance behavior; Rattus norvegicus, 40 mg/kg po, at the indicated duration, read-out: Avoidance block at Duration of Sig. Activity (AB)): 30%
inhibition in vivo at 40 mg/kg (avoidance behavior; Rattus norvegicus, 40 mg/kg po, at time of peak effect, read-out: Avoidance block at Time of Peak Effect (AB)): 90%
duration of neuroleptic effect (in words) (avoidance behavior): several weeks
time of maximum neuroleptic activity after administration (avoidance behavior; p.o.): 7 to 10 days
Pole-Climb Avoidance, % Block (Pole-Climb Avoidance; 1-4 hours): 30%
Pole-Climb Avoidance, % Block (Pole-Climb Avoidance; 1 week): 50%
Pole-Climb Avoidance, % Block (Pole-Climb Avoidance; 2 weeks): 44%
Pole-Climb Avoidance, % Block (Pole-Climb Avoidance; 3 weeks): 11%
Continuous Avoidance, % Decrease of Responding (Continuous Avoidance [7]; 1-4 hours): 0%
Continuous Avoidance, % Decrease of Responding (Continuous Avoidance [7]; 1 week): 97%
Continuous Avoidance, % Decrease of Responding (Continuous Avoidance [7]; 2-4 hours): 59%
Continuous Avoidance, % Decrease of Responding (Continuous Avoidance [7]; 2 weeks): 96%
Continuous Avoidance, % Decrease of Responding (Continuous Avoidance [7]; 3 weeks): 93%
Continuous Avoidance, % Decrease of Responding (Continuous Avoidance [7]; 4 weeks): 84%
Continuous Avoidance, % Decrease of Responding (Continuous Avoidance [7]; 5 weeks): 82%
Continuous Avoidance, % Decrease of Responding (Continuous Avoidance [7]; 6 weeks): 55%
Continuous Avoidance, % Decrease of Responding (Continuous Avoidance [7]; 7 weeks): 48%
Continuous Avoidance, % Decrease of Responding (Continuous Avoidance [7]; 8 weeks): 32%
minimal effective dose (Continuous Avoidance [1]; 168 h, 7 Days Post-Drug): < 5 mg/kg
Continuous Avoidance, % Decrease of Responding (Continuous Avoidance [1]; 1-4 hours): 0%
Continuous Avoidance, % Decrease of Responding (Continuous Avoidance [1]; 1 week): 35%
Continuous Avoidance, % Decrease of Responding (Continuous Avoidance [1]; 2-4 hours): 15%
Continuous Avoidance, % Decrease of Responding (Continuous Avoidance [1]; 2 weeks): 37%
Continuous Avoidance, % Decrease of Responding (Continuous Avoidance [1]; 3 weeks): 24%
ED50 ([2]; 168 h, 7 Days Post-Drug): < 5 mg/kg
Apomorphine Induced Emesis % Antagonism ([2]; 1-4 hours): 93%
Apomorphine Induced Emesis % Antagonism ([2]; 1 week): 100%
Apomorphine Induced Emesis % Antagonism ([2]; 2-4 hours): 100%
Apomorphine Induced Emesis % Antagonism ([2]; 2 weeks): 100%
Apomorphine Induced Emesis % Antagonism ([2]; 3 weeks): 100%
Apomorphine Induced Emesis % Antagonism ([2]; 4 weeks): 100%
Apomorphine Induced Emesis % Antagonism ([2]; 5 weeks): 100%
Apomorphine Induced Emesis % Antagonism ([2]; 6 weeks): 100%
Apomorphine Induced Emesis % Antagonism ([2]; 7 weeks): 56%
Apomorphine Induced Emesis % Antagonism ([2]; 8 weeks): 40%
Serum Prolactin Levels % Increase (Serum Prolactin; 1-4 hours): 215%
Serum Prolactin Levels % Increase (Serum Prolactin; 1 week): 525%
Serum Prolactin Levels % Increase (Serum Prolactin; 2-4 hours): 97%
Serum Prolactin Levels % Increase (Serum Prolactin; 3 weeks): 251%
Serum Prolactin Levels % Increase (Serum Prolactin; 4 weeks): 56%
ED50 ([3]; 168 h, 7 Days Post-Drug): < 15 mg/kg
Amphetamine Induced Rotation % Antagonism ([3]; 1-4 hours): 14%
Amphetamine Induced Rotation % Antagonism ([3]; 1 week): 97%
Amphetamine Induced Rotation % Antagonism ([3]; 2 weeks): 95%
Amphetamine Induced Rotation % Antagonism ([3]; 3 weeks): 87%
Amphetamine Induced Rotation % Antagonism ([3]; 4 weeks): 87%
Amphetamine Induced Rotation % Antagonism ([3]; 5 weeks): 62%
Amphetamine Induced Rotation % Antagonism ([3]; 6 weeks): 28%
Amphetamine Induced Rotation % Antagonism ([3]; 7 weeks): 4%
ED50 ([4]; 168 h, 7 Days Post-Drug): 19.6 mg/kg
IC50 [8]: 1.8 nM
Dopamine Turnover-Brain, Caudate ([5]; 40 mg/kg PO, 7 Days Post-Drug): Signif. .uparw.
Dopamine Turnover-Brain, Limbic and Remainder ([6]; 40 mg/kg PO, 7 Days Post-Drug): Not signif.
IC50 [9]: 500 nM
IC50 (Prolactin Secretion): 15 nM
LD50 at 24 h ([10]; ip): 77.5 mg/kg
LD50 at 168 h ([10]; po): 45 mg/kg
revertant colonies (Ames) (revertant colonies): increased revertant colonies at the highest concentration tested

CC(C)Nc1ccc(OCCN2CCN(CCCN3c4ccccc4Sc4ccc(Cl)cc43)CC2)cc1.O=C(O)/C=C\C(=O)O [Compound B, N-[4-[2-[4-[3-(2-chloro-10H-phenothiazin-10-yl)propyl]-1-piperazinyl]ethoxy]phenyl]-α-methylethaneamine (Z)-2-butenedioate]
Duration of Sig. Activity (avoidance behavior; 30 mg/kg po): 3 days
Time of Peak Effect (avoidance behavior; 30 mg/kg po): 0.0417 days
inhibition in vivo at 30 mg/kg (avoidance behavior; Rattus norvegicus, 1 h, 30 mg/kg po, 60 min. post-drug, read-out: Percentage Block of Avoidance, 60 min. post-drug): 100%
ED50 (avoidance behavior; Rattus norvegicus, po, 1 h, p.o., 60 minutes pretreatment, day of administration, read-out: ABD50): 8.7 mg/kg
inhibition in vivo at 30 mg/kg (avoidance behavior; Rattus norvegicus, 30 mg/kg po, 24 hrs. post-drug, read-out: Percentage Block of Avoidance, 24 hrs. post-drug): 70%
inhibition in vivo at 30 mg/kg (avoidance behavior; Rattus norvegicus, 30 mg/kg po, at the indicated duration, read-out: Avoidance block at Duration of Sig. Activity (AB)): 43%
inhibition in vivo at 30 mg/kg (avoidance behavior; Rattus norvegicus, 30 mg/kg po, at time of peak effect, read-out: Avoidance block at Time of Peak Effect (AB)): 100%
duration of neuroleptic effect (in words) (avoidance behavior): several days
time of maximum neuroleptic activity (in words) (avoidance behavior; p.o.): on the day of administration
LD50 at 168 h ([10]; ip): 230 mg/kg
LD50 at 24 h ([10]; po): > 1000 mg/kg
LD50 at 168 h ([10]; po): 248 mg/kg
mutogenic effects (conclusion) (revertant colonies): free of mutogenic effects
revertant colonies (Ames) (revertant colonies): no increase in revertant colonies
